Assay results: patent US9233961B2, “Compounds and compositions for the treatment of parasitic diseases” (Novartis AG, priority 2013, dated 2016)
Like-named read-outs stand apart in the source and are kept apart here.

Experiments:
[1] = tested on: L. donovani HU3 strain in mouse peritoneal macrophages; assay: Assay for proliferation of Leishmania parasites in mouse peritoneal macrophages; format: cell-based, Leishmania donovani; conditions: Leishmania donovani, Peritoneal macrophage, read-out: L. donavani Macrophage EC50
Outline: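 BALB/c peritoneal macrophages infected 24 h with L. donovani HU3 amastigotes taken from spleens of mice infected 9–11 weeks, then treated with compound for 5 days at 37° C, 5% CO2. Parasite nuclei counted by SYBR Green imaging after fixation; EC50 from percentage inhibition.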

[2] = tested on: Leishmania donovani axenic amastigote parasites; assay: Leishmania donovani axenic amastigote proliferation assay; format: cell-based; conditions: read-out: L. donovani amastigotes EC50
Outline: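 L. donovani axenic amastigotes (9600/well) in RPMI 1640 with 20% heat-inactivated FBS, folic acid, adenosine, glucose and 25 mM MES, pH 5.5, were incubated with compounds for 2 days at 37 °C, 5% CO2. Viability read by CellTiter-Glo luminescence; EC50 calculated.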

[3] = tested on: Trypanosoma cruzi amastigotes (Tulahuen strain) cultured in 3T3 fibroblast cells; assay: Assay for proliferation of kinetoplastid parasite Trypanosoma cruzi; format: cell-based; conditions: 144 h, read-out: T cruzi EC50
From the text: Assay for Proliferation of Kinetoplastid Parasite Trypanosoma cruzi.
Compounds of the invention can be assayed to measure their capacity to inhibit proliferation of kinetoplastid parasite Trypanosoma cruzi. The screening procedure is for identifying compounds with inhibitor activity against Trypanosoma cruzi amastigotes cultured in 3T3 fibroblast cells. The assay is done using the mammalian stage (amastigotes) of T. cruzi that replicates in the intracellular space of host cells. The host cells are initially infected with the culture-derived trypomastigotes that rapidly invade and then divide as amastigotes. The protocol uses the Tulahuen strain of T. cruzi that has been engineered to express the E. coli beta-galactosidase gene (Lac-Z) (Antimicr. Agents Chemoth. 40:2592, 1996). This allows for a colorimetric readout by using the substrate CPRG and an absorbance plate reader.
3T3 fibroblast cells are re-suspended in RPMI-1640 medium without phenol red medium supplemented with 10% FBS (heat inactivated), 100 μg/ml penicillin, and 100 μg/ml streptomycin. Forty μL of suspension (1,000 cells) is dispensed into 384-well plates and incubated overnight at 37° C. temperature and in atmosphere containing 5% CO2. The following day, 100 nL of compounds of the invention in DMSO are added to plate wells containing 3T3 cells. At the same time control compounds (benznidazole and nifurtimox) and DMSO are added to plates to serve as the positive and negative controls, respectively. After that, 10 μL of media containing 10,000 T. cruzi trypomastigotes are added to each plate well and plates are placed back into incubators. After 6 day incubation, 10 μL of reagent solution (0.6 mM CPRG, 0.6% NP-40 in PBS) is added to plates and incubated at room temperature for 2 hours. Absorbance is then measured on SpectraMax Gemini […] to determine relative number of T. cruzi cells present in each plate well. The percentage inhibition of 50%, EC50, is calculated for each compound. […] Typically, the EC50 is 10 μM or less.

[4] = tested on: Trypanosoma brucei Lister 427 strain bloodstream form; assay: Assay for proliferation of kinetoplastid parasite Trypanosoma brucei; format: cell-based
Outline: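 Bloodstream-form T. brucei Lister 427 in HMI-9 medium was exposed to compound (DMSO vehicle) for 48 hours at 37° C, 5% CO2. Parasite growth was read as ATP by CellTiter-Glo luminescence, with EC50 calculated from percent inhibition.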

[5] = Tulahuen amastigotes in 3T3 fibroblast cells, 6 day incubation
[6] = Lister 427 bloodstream form, 48 hours, read-out: T. brucei EC50
[7] = T. brucei Lister 427, 48 hours, Cell Titer Glo, read-out: EC50

| SMILES | EC50 [1] | EC50 ([2]; axenic amastigotes in vitro) | EC50 [3, 5] | EC50 [4, 6] | EC50 [4, 7] | EC50 [2] | EC50 ([3]; TULAHUEN, Fibroblast) | EC50 ([4]; 48 h, read-out: T. brucei EC50) |
| --- | --- | --- | --- | --- | --- | --- | --- | --- |
| Cc1cnc2nc(-c3cc(NC(=O)C4CCCO4)ccc3Cl)[nH]c2c1 (stereo not shown) [Compound 138] | > 50 µM | > 25 µM | > 20 µM | > 25 µM | – | – | – | – |
| CCOC(=O)Nc1ccc(Cl)c(-c2nc3ncc(-c4ccc(NC)cc4)cc3[nH]2)c1 [Compound 351] | 3.7 µM | 1.19 µM | 0.243 µM | 0.206 µM | – | – | – | – |
| NC(=O)c1ccc(-c2cnc3nc(-c4cc(NC(=O)c5ccco5)ccc4Cl)[nH]c3c2)cc1 [Compound 19, N-{3-[6-(4-carbamoylphenyl)-1H-imidazo[4,5-b]pyridin-2-yl]-4-chlorophenyl}furan-2-carboxamide] | > 50 µM | 0.165 µM | > 20 µM | 0.0058 µM | 0.006 µM | – | – | – |
| Cc1cnc2nc(-c3cc(NC(=O)c4cccnn4)ccc3Cl)[nH]c2c1 [Compound 186] | > 34.7 µM | > 25 µM | > 11.5 µM | 4.5 µM | – | – | – | – |
| Cc1cnc2nc(-c3cc(NC(=O)c4ccccc4N(C)C)ccc3Cl)[nH]c2c1 [Compound 150] | 22.8 µM | > 25 µM | 8.9 µM | 12.1 µM | – | – | – | – |
| Cc1cnc2nc(-c3cc(NC(=O)c4ccc(C)o4)ccc3Cl)[nH]c2c1 [Compound 126] | 1.63 µM | 1.6 µM | 0.148 µM | 0.303 µM | – | – | – | – |
| CON(C)C(=O)Nc1ccc(Cl)c(-c2nc3ncc(C)cc3[nH]2)c1 [Compound 240] | 6.1 µM | 2.06 µM | 0.7 µM | 0.45 µM | – | – | – | – |
| Cc1ccc(C(=O)Nc2ccc(Cl)c(-c3nc4ncc(C(F)(F)F)cc4[nH]3)c2)o1 [Compound 279] | 2.25 µM | 0.57 µM | 0.141 µM | 0.311 µM | – | – | – | – |
| Cc1cnc2nc(-c3cc(NC(=O)CCC(=O)O)ccc3Cl)[nH]c2c1 [Compound 201] | > 50 µM | > 25 µM | > 20 µM | > 10.8 µM | – | – | – | – |
| Cc1cnc2nc(-c3cc(NC(=O)N4CCN(C)CC4)ccc3Cl)[nH]c2c1 [Compound 244] | > 50 µM | > 25 µM | > 20 µM | > 25 µM | – | – | – | – |
| Cc1cnc2nc(-c3cc(NC(=O)C4CCCCO4)ccc3Cl)[nH]c2c1 (stereo not shown) [Compound 131] | > 50 µM | 22.1 µM | 6.8 µM | 5.1 µM | – | – | – | – |
| Cc1cnc2nc(-c3cc(NC(=O)c4cc(Cl)ccc4Cl)ccc3Cl)[nH]c2c1 [Compound 98] | 23.5 µM | 16.7 µM | 1.18 µM | 2.91 µM | – | – | – | – |
| COCCOc1ccc(-c2cnc3nc(-c4cc(NC(=O)c5ccco5)ccc4Cl)[nH]c3c2)c(F)n1 [Compound 52] | > 14.5 µM | 0.188 µM | 0.068 µM | 0.036 µM | – | – | – | – |
| COCCOC(=O)Nc1ccc(Cl)c(-c2nc3ncc(-c4ccc5c(c4)CC(=O)N5)cc3[nH]2)c1 [Compound 379] | 8.7 µM | 1.49 µM | 13.2 µM | 0.69 µM | – | – | – | – |
| Cc1cnc2nc(-c3cc(NC(=O)c4cccc(N5CCOCC5)c4)ccc3Cl)[nH]c2c1 [Compound 195] | > 50 µM | 21.2 µM | 8.8 µM | 7.8 µM | – | – | – | – |
| Cc1cnc2nc(-c3cc(NC(=O)N(C)C)ccc3Cl)[nH]c2c1 [Compound 243] | 39.6 µM | 5 µM | 2.58 µM | 0.45 µM | – | – | – | – |
| O=C(Nc1ccc(Cl)c(-c2nc3ncc(Br)cc3[nH]2)c1)c1cnccn1 [Compound 375] | > 42.7 µM | 7.5 µM | 3.9 µM | 2.35 µM | – | – | – | – |

| SMILES | EC50 [1] | EC50 ([2]; axenic amastigotes in vitro) | EC50 [3, 5] | EC50 [4, 6] | EC50 [4, 7] | EC50 [2] | EC50 ([3]; TULAHUEN, Fibroblast) | EC50 ([4]; 48 h, read-out: T. brucei EC50) |
| --- | --- | --- | --- | --- | --- | --- | --- | --- |
| O=C(Nc1ccc(Cl)c(-c2nc3ncc(-c4cccnc4)cc3[nH]2)c1)c1ccco1 [Compound 50] | 1.64 µM | 0.134 µM | 0.053 µM | 0.00262 µM | – | – | – | – |
| Cc1cnc2nc(-c3cc(NC(=O)C4CCCCN4)ccc3Cl)[nH]c2c1 (stereo not shown) [Compound 171] | > 50 µM | > 25 µM | 7.5 µM | > 7.5 µM | – | – | – | – |
| Cc1cnc2nc(-c3cc(NC(=O)c4ccc[nH]4)ccc3Cl)[nH]c2c1 [Compound 100] | 6.4 µM | 6.3 µM | 2.17 µM | 1.42 µM | – | – | – | – |
| COc1ccc(-c2cnc3nc(-c4cc(NC(=O)c5ccco5)ccc4Cl)[nH]c3c2)cn1 [Compound 29, N-{4-chloro-3-[6-(6-methoxypyridin-3-yl)-1H-imidazo [4,5-b]pyridin-2-yl]phenyl}furan-2-carboxamide] | 2.29 µM | 0.234 µM | 0.071 µM | 0.0235 µM | 0.024 µM | – | – | – |
| Cc1cnc2nc(-c3cc(NC(=O)Cc4cccc(Cl)c4)ccc3Cl)[nH]c2c1 [Compound 85] | 21.3 µM | > 25 µM | > 11.5 µM | 9.3 µM | – | – | – | – |
| Cc1cnc2nc(-c3cc(NC(=O)c4ccccc4Cl)ccc3Cl)[nH]c2c1 [Compound 149] | 9.2 µM | > 25 µM | 0.55 µM | 10.9 µM | – | – | – | – |
| COC(=O)Nc1ccc(-c2cnc3nc(-c4cc(NC(=O)c5ccco5)ccc4Cl)[nH]c3c2)cc1 [Compound 58, methyl N-(4-{2-[2-chloro-5-(furan-2-amido)phenyl]-1H-imidazo[4,5-b]pyridin-6-yl}phenyl)carbamate] | 0.284 µM | 0.051 µM | 0.0193 µM | 0.0051 µM | 0.005 µM | – | – | – |
| COCCOC(=O)Nc1ccc(Cl)c(-c2nc3ncc(Br)cc3[nH]2)c1 [Compound 371] | 6.5 µM | 2.35 µM | 3.3 µM | 2.21 µM | – | – | – | – |
| Cc1cnc2nc(-c3cc(NC(=O)c4ccc(N5CCOCC5)cn4)ccc3Cl)[nH]c2c1 [Compound 84] | > 50 µM | 6.7 µM | 2.3 µM | 2.13 µM | – | – | – | – |
| O=C(Nc1ccc(Cl)c(-c2nc3ncc(Br)cc3[nH]2)c1)C1CCCC1 [Compound 374] | 5.9 µM | 16.5 µM | 0.85 µM | 5.1 µM | – | – | – | – |
| Cc1cnc2nc(-c3cc(NC(=O)OC4CCCCC4)ccc3Cl)[nH]c2c1 [Compound 222] | > 22.6 µM | > 25 µM | 6.4 µM | > 25 µM | – | – | – | – |
| COc1ccc(C(=O)Nc2ccc(Cl)c(-c3nc4ncc(C)cc4[nH]3)c2)c(OC)c1 [Compound 147] | 8.8 µM | > 25 µM | 2.41 µM | 3.6 µM | – | – | – | – |
| CNc1ccc(-c2cnc3nc(-c4cc(NC(=O)OCCOC)ccc4Cl)[nH]c3c2)cc1 [Example 350, 2-Methoxyethyl N-(4-chloro-3-{6-[4-(methylamino)phenyl]-1H-imidazo[4,5-b]pyridin-2-yl}phenyl)carbamate] | 1.26 µM | – | – | – | – | 0.68 µM | 0.51 µM | 0.8 µM |
| Cc1cnc2nc(-c3cc(NC(=O)c4ccc(Cl)s4)ccc3Cl)[nH]c2c1 [Compound 152] | 4.5 µM | > 25 µM | > 11.5 µM | 5.6 µM | – | – | – | – |
| Cc1cnc2nc(-c3cc(NC(=O)Cc4ccncc4)ccc3Cl)[nH]c2c1 [Compound 148] | > 50 µM | > 25 µM | > 20 µM | > 24.6 µM | – | – | – | – |
| Cc1cnc2nc(-c3cc(NC(=O)c4ccc(Cl)o4)ccc3Cl)[nH]c2c1 [Compound 86] | 3.09 µM | 0.84 µM | 0.069 µM | 0.183 µM | – | – | – | – |
| O=C(Nc1ccc(Cl)c(-c2nc3ncc(C4=CCNCC4)cc3[nH]2)c1)c1ccco1 [Compound 70] | 20.8 µM | 6 µM | 0.49 µM | 0.174 µM | – | – | – | – |
